Values joined by “and” are separate entries in the source; they are usually repeats but may differ in a detail not shown here. Equal entries are not always repeated. Where two headings read alike, the source gives them in different places.
Legend:
human red blood cells = assay: Haemolysis assay; assay type: cell-based; conditions: 1 h at 37 °C
Protocol: Haemolysis assay: Human whole blood (Australian Red Cross Blood Service) was washed three times with three volumes of 0.9 % NaCl and resuspended in a concentration of 0.5×10^8 cells mL^−1, determined by manual cell count in a Neubauer haemocytometer. Washed cells were added to compound containing plates (384‐well round bottom polypropylene plates, Corning 3657) for a final volume of 50 μL, shaken for 10 min and incubated for 1 h at 37 °C, without shaking. After incubation, the plates were centrifuged at 1000 g for 10 min to pellet cells and debris, 25 μL of the supernatant was then transferred to reading plates (384‐well flat bottom polystyrene plates, Corning CLS3680), with haemolysis determined by measuring the supernatant absorbance at […] (OD405), using cells without inhibitors as negative control and cells with 1 % Triton X‐100 (Sigma T8787) as positive control. HC10 and HC50 (concentration at which 10 and 50 % haemolysis is induced, respectively) were calculated by curve fitting the inhibition values vs. log(concentration) of four replicates using a sigmoidal dose–response function with variable fitting values for top, bottom and slope using Prism 8. Melittin (Sigma M2272) was used as positive haemolytic control on each plate. Human ethics approval from the University of Queensland Institutional Human Research Ethics Committee was obtained for use of human blood for haemolysis studies (approval number 201400003).

C. albicans ATCC 90028 = assay: Antifungal MIC assay (broth microdilution in YNB); assay type: cell-based, Candida albicans
Excerpt: (§1) Yeast strains: Candida albicans (ATCC 90028, NCCLS 11), Cryptococcus neoformans (ATCC 208821, H99 type strain), Candida tropicalis (ATCC 750, type strain), Candida glabrata (ATCC 90030, NCCLS 84) and Cryptococcus deuterogattii (ATCC 32609, type strain) were obtained from the American Type Culture Collection (ATCC). Cryptococcus deuterogattii (CBS 7750), Candida auris (CBS 10913) and Candida auris (CBS 12373) were obtained from the CBS‐KNAW culture collection. The strains were maintained on glycerol/YPD (yeast extract‐peptone dextrose) broth (20:80 v/v) at −80 °C.
(§2) Antifungal minimum inhibitory concentration (MIC) assay: The cobalt complexes and antifungal control compounds were serially diluted in 50 μL of Yeast Nitrogen Broth (YNB; BD, Cat No. 233520 supplemented with 2 % glucose and 10 mM ammonium sulfate) two‐fold across the wells of non‐binding surface (NBS) 96‐well plates (Corning; Cat. No. 3641). Plates were set up in quadruplicate for each strain tested, and two biological replicates were conducted on separate assay days.
(§3) Yeast strains were cultured from glycerol onto YPD (Becton Dickinson 242720) agar at 30 °C for 72 h. For each strain, a minimum of five single colonies were taken from the agar plate and dissolved in sterile water and adjusted to form a yeast suspension of 1×10^6 to 5×10^6 CFU mL^−1 (as determined by OD530). The suspension was subsequently diluted into YNB media, and added to each well of the compound containing plates, giving a final cell density of 2.5×10^3 CFU mL^−1 and a total volume of 100 μL. Plates were covered and incubated at 35 °C for 36 h without shaking.
(§4) Growth inhibition of all strains was determined visually where the MIC was recorded as the lowest compound concentration with no visible growth. Fluconazole (Sigma F8929), ketoconazole (Sigma K1003) and micafungin (Sigma SML2288) were used as internal positive inhibitor controls for every strain tested.

[1] = system: C. deuterogattii ATCC 32609; assay: Antifungal MIC assay (broth microdilution in YNB); assay type: cell-based, Cryptococcus deuterogattii
Excerpt: as §1, §2, §3, §4

C. tropicalis ATCC 750 = assay: Antifungal MIC assay (broth microdilution in YNB); assay type: cell-based, Candida tropicalis
Excerpt: as §1, §2, §3, §4

C. glabrata ATCC 90030 = assay: Antifungal MIC assay (broth microdilution in YNB); assay type: cell-based, Candida glabrata
Excerpt: as §1, §2, §3, §4

[2] = system: Escherichia coli ATCC 25922; assay: CO-ADD bacterial broth microdilution MIC assay; assay type: cell-based; conditions: CAMHB, 37 °C, 18 h, ≥ 80% inhibition
Protocol: (§5) CO-ADD High Throughput Screening
(§6) Bacterial broth microdilution minimum inhibitory concentration (MIC) assay Bacterial strains were cultured in Cation-adjusted Mueller Hinton broth (CAMHB; Bacto Laboratories 212322) at 37 °C overnight. A sample of each culture was then diluted 40-fold in fresh CAMHB and incubated at 37 °C for 1.5-3 h. The resultant mid-log phase cultures were diluted with CAMHB (CFU/mL measured by OD600), then added to each well of the compound-containing plates (384-well non-binding surface (NBS) plates; Corning CLS3640), giving a cell density of 5 × 10^5 CFU/mL and a total volume of 50 µL. Plates were covered and incubated at 37 °C for 18 h without shaking. Inhibition of bacterial growth was determined measuring absorbance at 600 nm (OD600), using media only as negative control and bacteria without inhibitors as positive control. MIC values were determined as the lowest concentration at which the growth was inhibited at ≥ 80%. Colistin sulfate (Sigma C4461) and vancomycin HCl (Sigma 861987) were used as positive inhibitor controls on each plate for Gram-negative and Gram-positive bacteria, respectively.
(§7) Figure S1. 1H NMR (400 MHz) of [Co(ATS)(DMAP)2]NO3 (3) in DMSO-d6.
(§8) (1 picture or pasted object on this page, not shown here)

[3] = system: Staphylococcus aureus ATCC 43300 (MRSA); assay: CO-ADD bacterial broth microdilution MIC assay; assay type: cell-based
Protocol: as §5, §6, §7, §8

[4] = system: Acinetobacter baumannii ATCC 19606; assay: CO-ADD bacterial broth microdilution MIC assay; assay type: cell-based; conditions: CAMHB, 37 °C, 18 h, ≥ 80% inhibition
Protocol: as §5, §6, §7, §8

[5] = system: Pseudomonas aeruginosa ATCC 27853; assay: CO-ADD bacterial broth microdilution MIC assay; assay type: cell-based; conditions: CAMHB, 37 °C, 18 h, ≥ 80% inhibition
Protocol: as §5, §6, §7, §8

[6] = system: C. neoformans ATCC 208821; assay: Antifungal MIC assay (broth microdilution in YNB); assay type: cell-based, Cryptococcus neoformans
Excerpt: as §1, §2, §3, §4

[7] = range of MICs, n=8, 35 °C, 36 h, visual, read-out: MIC C. albicans ATCC 90028
[8] = range of MICs, n=8, 35 °C, 36 h, visual, read-out: MIC C. glabrata ATCC 90030
[9] = CAMHB, 37 °C, 18 h, ≥ 80% inhibition
[10] = range of MICs, n=8, 35 °C, 36 h, visual

| Molecule | Haem HC10 (concentration at which 10 % haemolysis is reached) (human red blood cells) | MIC Candida albicans ATCC 90028 (C. albicans ATCC 90028; Table S1) [µg/mL] | MIC (C. albicans ATCC 90028; [7]) [µM] | MIC Cryptococcus deuterogattii ATCC 32609 ([1]; Table S1) [µg/mL] | MIC Candida tropicalis ATCC 750 (C. tropicalis ATCC 750; Table S1) [µg/mL] | MIC Candida glabrata ATCC 90030 (C. glabrata ATCC 90030; Table S1) [µg/mL] | MIC (C. glabrata ATCC 90030; [8]) [µM] | MIC Ec (Escherichia coli ATCC 25922) [2] [µg/mL] | MIC Sa (Staphylococcus aureus ATCC 43300, MRSA) [3, 9] [µg/mL] | MIC Ab (Acinetobacter baumannii ATCC 19606) [4] [µg/mL] | MIC Pa (Pseudomonas aeruginosa ATCC 27853) [5] [µg/mL] | MIC Cryptococcus neoformans ATCC 208821 ([6]; Table S1) [µg/mL] | other results |
| --- | --- | --- | --- | --- | --- | --- | --- | --- | --- | --- | --- | --- | --- |
| CC(/C=C(\O)C(F)(F)F)=N\CC/N=C(C)/C=C(\O)C(F)(F)F [Compound L2] | >100 µM | – | – | – | – | – | – | – | – | – | – | – | MIC (C. albicans ATCC 90028; Candida albicans, ATCC90028, Table S1, read-out: MIC Candida albicans ATCC 90028): > 33.2 µg/mL; MIC (C. albicans ATCC 90028; Candida albicans, ATCC90028, range of MICs, n=8, 35 °C, 36 h, visual, read-out: MIC C. albicans ATCC 90028): > 100 µM; MIC ([1]; Cryptococcus deuterogattii, ATCC32609, Table S1, read-out: MIC Cryptococcus deuterogattii ATCC 32609): > 33.2 µg/mL; MIC ([1]; Cryptococcus deuterogattii, ATCC32609, range of MICs, n=8, 35 °C, 36 h, visual, read-out: MIC C. deuterogattii ATCC 32609): > 100 µM; MIC (C. tropicalis ATCC 750; Candida tropicalis, ATCC750, Table S1, read-out: MIC Candida tropicalis ATCC 750): > 33.2 µg/mL; MIC (C. tropicalis ATCC 750; Candida tropicalis, ATCC750, range of MICs, n=8, 35 °C, 36 h, visual, read-out: MIC C. tropicalis ATCC 750): > 100 µM; MIC (C. glabrata ATCC 90030; Nakaseomyces glabratus, ATCC90030, Table S1, read-out: MIC Candida glabrata ATCC 90030): > 33.2 µg/mL; MIC (C. glabrata ATCC 90030; Nakaseomyces glabratus, ATCC90030, range of MICs, n=8, 35 °C, 36 h, visual, read-out: MIC C. glabrata ATCC 90030): > 100 µM; MIC ([2]; Escherichia coli, ATCC25922, read-out: MIC Ec (Escherichia coli ATCC 25922)): > 32 µg/mL; MIC ([3]; Staphylococcus aureus, CAMHB, 37 °C, 18 h, ≥ 80% inhibition, read-out: MIC Sa (Staphylococcus aureus ATCC 43300, MRSA)): > 32 µg/mL; MIC ([4]; Acinetobacter baumannii, ATCC19606, read-out: MIC Ab (Acinetobacter baumannii ATCC 19606)): > 32 µg/mL; MIC ([5]; Pseudomonas aeruginosa, ATCC27853, read-out: MIC Pa (Pseudomonas aeruginosa ATCC 27853)): > 32 µg/mL; MIC ([6]; Cryptococcus neoformans, ATCC208821, Table S1, read-out: MIC Cryptococcus neoformans ATCC 208821): > 33.2 µg/mL; MIC ([6]; Cryptococcus neoformans, ATCC208821, range of MICs, n=8, 35 °C, 36 h, visual, read-out: MIC C. neoformans ATCC 208821): > 100 µM |
| [Co(3F‐salophen)(3F‐BnNH2)2]NO3 [Compound 6] | >100 µM | 69.4 | 100 | 69.4 | > 69.4 | > 69.4 | >100 | > 32 | 8 | > 32 | > 32 | 69.4 | MIC ([1]; range of MICs, n=8, 35 °C, 36 h, visual, read-out: MIC C. deuterogattii ATCC 32609): 100 µM; MIC (C. tropicalis ATCC 750; range of MICs, n=8, 35 °C, 36 h, visual, read-out: MIC C. tropicalis ATCC 750): >100 µM; MIC methicillin‐resistant S. aureus (MRSA) ([3]; value in μM given in brackets in the text): 11.5 µM; MIC ([6]; range of MICs, n=8, 35 °C, 36 h, visual, read-out: MIC C. neoformans ATCC 208821): 100 µM |
| CC1=[N+]2N=C(N)[S][Co-3]23([n+]2ccc(N(C)C)cc2)([n+]2ccc(N(C)C)cc2)[S]C(N)=N[N+]3=C1C.O=[N+]([O-])[O-] [Compound 3, [Co(ATS)(DMAP)2]NO3] | 73.1 µM and 73.1 ± 20.4 µM | 0.93 | 1.56 | 0.93 to 1.86 | 0.23 to 0.46 | 29.7 | 50 | > 32 | > 32 | > 32 | > 32 | 0.46 to 0.93 | MIC C. deuterogattii ATCC 32609 [1, 10]: 1.56 to 3.12 µM; MIC C. tropicalis ATCC 750 (C. tropicalis ATCC 750; [10]): 0.39 to 0.78 µM |

Source: publication PMC7855930, “Nontoxic Cobalt(III) Schiff Base Complexes with Broad‐Spectrum Antifungal Activity” (Chemistry (Weinheim an Der Bergstrasse, Germany), 2020)
